Some results are limits rather than exact numbers.

This experiment addresses human Edg-2 receptor (LPA1 receptor) (Homo sapiens, UniProt Q92633). The experiment is described as follows: Edg-2 receptor inhibition by FLIPR calcium fluorescence measurement (LPA-mediated calcium liberation). The experiment is classed as cell-based. Conditions: CHO cells stably overexpressing human Edg-2 receptor; LPA 18:1 100 nM; fluo-4 fluorescence; triplicate; read-out: Inhibitory concentrations IC50 for inhibition of the Edg-2 receptor. The procedure, abridged: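 CHO cells stably overexpressing human Edg-2 were fluo-4 loaded and pre-incubated ~5 min with compound (≤0.3% DMSO) in HBSS/HEPES/probenecid, pH 7.5. Then LPA 18:1 at 100 nM final was added. Peak calcium fluorescence over ~3 min, baseline-corrected versus DMSO, gave % inhibition in triplicate and IC50.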

Sequence of human Edg-2 receptor (LPA1 receptor) (Q92633 whole entry): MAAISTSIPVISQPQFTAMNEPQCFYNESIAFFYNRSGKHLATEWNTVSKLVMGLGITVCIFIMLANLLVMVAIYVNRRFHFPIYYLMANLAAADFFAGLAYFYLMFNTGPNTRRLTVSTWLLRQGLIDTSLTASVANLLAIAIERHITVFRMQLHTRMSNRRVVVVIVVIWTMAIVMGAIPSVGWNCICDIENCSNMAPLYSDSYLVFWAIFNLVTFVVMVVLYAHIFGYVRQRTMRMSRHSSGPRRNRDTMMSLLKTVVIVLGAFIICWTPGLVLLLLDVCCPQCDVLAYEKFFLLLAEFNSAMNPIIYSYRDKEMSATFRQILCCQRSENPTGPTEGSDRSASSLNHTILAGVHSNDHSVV

As for `COc1ccc(C(=O)NC2(C(=O)O)Cc3ccccc3C2)cc1-c1cc(F)c(F)c(F)c1` [Example 306], the IC50 was less than 100 nM.
The result for `Cc1cccc(CCOc2cc(C(=O)NC3(C(=O)O)Cc4ccccc4C3)ccc2OCc2ccccc2)c1` [Example 253, 2-[4-Benzyloxy-3-(2-m-tolyl-ethoxy)-benzoylamino]-indane-2-carboxylic acid] reads less than 100 nM; that for `COc1ccc(C(=O)NC2(C(=O)O)Cc3ccccc3C2)cc1OS(=O)(=O)c1ccc(C)cc1` [Example 110], 1000 to 30000 nM.
Turning to `COc1ccc(C(=O)NC2(C(=O)O)Cc3ccccc3C2)cc1-c1ccc(F)c(C(F)(F)F)c1` [Example 345], the IC50 is less than 100 nM.
The same measure for `CNc1ccc(C(=O)NC2(C(=O)O)Cc3ccccc3C2)cc1OCCc1cccc(C)c1` [Example 164, 2-[4-Methylamino-3-(2-m-tolyl-ethoxy)-benzoylamino]-indane-2-carboxylic acid]: less than 100 nM; for `COCc1cccc(-c2cc(C(=O)NC3(C(=O)O)Cc4ccccc4C3)ccc2OC)c1` [Example 315]: less than 100 nM; for `CCOc1ccc(C(=O)NC2(C(=O)O)Cc3ccccc3C2)cc1NCCc1cccc(C)c1` [Example 178, 2-[4-Ethoxy-3-(2-m-tolyl-ethylamino)-benzoylamino]-indane-2-carboxylic acid]: 1000 to 30000 nM.
The result for `COc1ccc(C(=O)NC2(C(=O)O)Cc3ccccc3C2)cc1-c1cc(Cl)cc(C)c1F` [Example 333] reads less than 100 nM; that for `COc1ccc(C(=O)NC2(C(=O)O)Cc3ccccc3C2)cc1S(=O)(=O)CCc1cccc(Cl)c1` [Example 184, 2-{3-[2-(3-Chloro-phenyl)-ethanesulfonyl]-4-methoxy-benzoylamino}-indane-2-carboxylic acid], 1000 to 30000 nM.
Consider `COc1ccc(C(=O)NC2(C(=O)O)Cc3ccccc3C2)cc1Cc1cccc(C)c1` [Example 244, 2-[4-Methoxy-3-(3-methyl-benzyl)-benzoylamino]-indane-2-carboxylic acid], for which the IC50 was in the range of 100 to 1000 nM.
In the case of `COc1ccc(C(=O)NC2(C(=O)O)Cc3ccccc3C2)cc1OCCc1cccc(CC(N)=O)c1` [Example 248, 2-{3-[2-(3-Carbamoylmethyl-phenyl)-ethoxy]-4-methoxy-benzoylamino}-indane-2-carboxylic acid], the IC50 was less than 100 nM.
The result for `COc1ccc(C(=O)NC2(C(=O)O)Cc3ccccc3C2)cc1-c1cccc(CC#N)c1` [Example 199, 2-[(3′-cyanomethyl-6-methoxy-biphenyl-3-carbonyl)-amino]-indane-2-carboxylic acid] reads less than 100 nM.
The same measure for `COc1ccc(C(=O)NC2(C(=O)O)Cc3ccccc3C2)cc1-c1cc(F)cc(OC(C)C)c1` [Example 343]: less than 100 nM.
The same measure for `COc1ccc(C(=O)NC2(C(=O)O)Cc3ccccc3C2)cc1OCCc1cccc(Cl)c1` [Example 132]: less than 100 nM; for `COc1ccc(C(=O)NC2(C(=O)O)Cc3ccccc3C2)cc1OCCc1cccc(SC(F)(F)F)c1` [Example 19]: less than 100 nM; for `Cc1cccc(CCOc2cc(C(=O)NC3(C(=O)O)Cc4ccccc4C3)ccc2C#N)c1` [Example 168, 2-[4-Cyano-3-(2-m-tolyl-ethoxy)-benzoylamino]-indane-2-carboxylic acid]: less than 100 nM.
With `Cc1cccc(CCOc2cc(C(=O)NC3(C(=O)O)Cc4ccccc4C3)ccc2C(C)F)c1` (stereo not drawn) [Example 11, 2-[4-(1-Fluoro-ethyl)-3-(2-m-tolyl-ethoxy)-benzoylamino]-indane-2-carboxylic acid], the IC50 is less than 100 nM.
The same measure for `COc1ccc(C(=O)NC2(C(=O)O)Cc3c(F)ccc(F)c3C2)cc1OCCc1cccc(C)c1` [Example 214, 4,7-Difluoro-2-[4-methoxy-3-(2-m-tolyl-ethoxy)-benzoylamino]-indane-2-carboxylic acid]: less than 100 nM; for `COc1ccc(C(=O)NC2(C(=O)O)Cc3ccccc3C2)cc1OCCc1cccc(SC)c1` [Example 16, 2-{4-Methoxy-3-[2-(3-methylsulfanyl-phenyl)-ethoxy]-benzoylamino}-indane-2-carboxylic acid]: less than 100 nM; for `Cc1cccc(CCNc2cc(C(=O)NC3(C(=O)O)Cc4ccccc4C3)ccc2O)c1` [Example 179, 2-[4-Hydroxy-3-(2-m-tolyl-ethylamino)-benzoylamino]-indane-2-carboxylic acid]: 100 to 1000 nM.
The same measure for `CCOc1ccc(-c2cc(C(=O)NC3(C(=O)O)Cc4ccccc4C3)ccc2OC)cc1C` [Example 340]: 100 to 1000 nM; for `COc1ccc(C(=O)NC2(C(=O)O)Cc3ccccc3C2)cc1OCCc1cccc(C(C)(CO)CO)c1` [Example 210, 2-(3-{2-[3-(2-Hydroxy-1-hydroxymethyl-1-methyl-ethyl)-phenyl]-ethoxy}-4-methoxy-benzoylamino)-indane-2-carboxylic acid]: 100 to 1000 nM.
On to `COc1ccc(C(=O)NC2(C(=O)O)Cc3ccccc3C2)cc1NC(=O)Cc1cccc(Br)c1` [Example 118], for which the IC50 fell in the range of 1000 to 30000 nM.
The result for `CCOc1ccc2ccccc2c1-c1cc(C(=O)NC2(C(=O)O)Cc3ccccc3C2)ccc1OC` [Example 331] reads 100 to 1000 nM.
The same measure for `COc1ccc(C(=O)NC2(C(=O)O)Cc3ccccc3C2)cc1OCC1CC1C` (stereo not drawn) [Example 82]: 1000 to 30000 nM; for `COc1ccc(C(=O)NC2(C(=O)O)Cc3ccccc3C2)cc1CCOc1cccc(C)c1` [Example 115, 2-[4-Methoxy-3-(2-m-tolyloxy-ethyl)-benzoylamino]-indane-2-carboxylic acid]: 1000 to 30000 nM.
Take `Cc1ccc(C(=O)NC2(C(=O)O)Cc3ccccc3C2)cc1OCCc1ccccc1F` [Example 177, 2-{3-[2-(2-Fluoro-phenyl)-ethoxy]-4-methyl-benzoylamino}-indane-2-carboxylic acid]: the IC50 was in the range of 100 to 1000 nM.
The same measure for `CC(=O)c1sc(C(=O)NC2(C(=O)O)Cc3ccccc3C2)cc1OCCc1cccc(C)c1` [Example 102, 2-{[5-Acetyl-4-(2-m-tolyl-ethoxy)-thiophene-2-carbonyl]-amino}-indane-2-carboxylic acid]: 100 to 1000 nM.
The same measure for `COc1ccc(C(=O)NC2(C(=O)O)Cc3ccccc3C2)cc1-c1cccc(C)c1` [Example 286]: less than 100 nM.
The result for `COc1ccc(C(=O)NC2(C(=O)O)Cc3ccccc3C2)cc1OCc1cc(C)n(C)n1` [Example 80] reads 1000 to 30000 nM; that for `COc1ccc(C(=O)NC2(C(=O)O)Cc3ccccc3C2)cc1-c1cccc(NS(C)(=O)=O)c1` [Example 307], less than 100 nM.
As for `CCc1ccc(C(=O)NC2(C(=O)O)Cc3ccccc3C2)cc1OCCc1cccc(C)c1` [Example 10, 2-[4-Ethyl-3-(2-m-tolyl-ethoxy)-benzoylamino]-indane-2-carboxylic acid], the IC50 was less than 100 nM.
The same measure for `COc1c(F)cc(C(=O)NC2(C(=O)O)Cc3ccccc3C2)cc1OCCc1cccc(CCO)c1` [Example 276, 2-(3-Fluoro-5-{2-[3-(2-hydroxy-ethyl)-phenyl]-ethoxy}-4-methoxy-benzoylamino)-indane-2-carboxylic acid]: less than 100 nM; for `COc1ccc(C(=O)NC2(C(=O)O)Cc3ccccc3C2)cc1-c1cccc(S(C)(=O)=O)c1` [Example 309]: 100 to 1000 nM; for `Cc1cccc(CCOc2cc(C(=O)NC3(C(=O)O)Cc4ccccc4C3)ccc2OCC2CC2)c1` [Example 266, 2-[4-cyclopropylmethoxy-3-(2-m-tolyl-ethoxy)-benzoylamino]-indane-2-carboxylic acid]: less than 100 nM.
The result for `COc1ccc(C(=O)NC2(C(=O)O)Cc3ccccc3C2)cc1-c1cccc(OCC2CC2)c1` [Example 324] reads 1000 to 30000 nM.
The same measure for `COc1ccccc1CCOc1cc(C(=O)NC2(C(=O)O)Cc3ccccc3C2)ccc1OC` [Example 138]: 1000 to 30000 nM; for `COc1ccc(C(=O)NC2(C(=O)O)Cc3ccccc3C2)cc1-c1cccc(Cl)c1C` [Example 327]: less than 100 nM.
For the molecule `Cc1cccc(CCNc2cc(C(=O)NC3(C(=O)O)Cc4ccccc4C3)ccc2C#N)c1` [Example 173, 2-[4-Cyano-3-(2-m-tolyl-ethylamino)-benzoylamino]-indane-2-carboxylic acid], the IC50 lay within 1000 to 30000 nM.
The result for `COc1ncc(C(=O)NC2(C(=O)O)Cc3ccccc3C2)cc1-c1cc(F)c(F)c(F)c1` [Example 229] reads less than 100 nM; that for `COc1ccc(C(=O)NC2(C(=O)O)Cc3ccsc3C2)cc1OCCc1cccc(C)c1` (stereo not drawn) [Example 99, 5-[4-Methoxy-3-(2-m-tolyl-ethoxy)-benzoylamino]-5,6-dihydro-4H-cyclopenta[b]thiophene-5-carboxylic acid], less than 100 nM; that for `COc1ccc(C(=O)NC2(C(=O)O)Cc3ccccc3C2)cc1OCCc1cc(C)cc(C)c1` [Example 22], 1000 to 30000 nM.
The same measure for `COc1ccc(C(=O)NC2(C(=O)O)Cc3ccccc3C2)cc1OCCc1scnc1C` [Example 206, 2-{4-Methoxy-3-[2-(4-methyl-thiazol-5-yl)-ethoxy]-benzoylamino}-indane-2-carboxylic acid]: 1000 to 30000 nM.
The same measure for `CCCOc1ccc(-c2cc(C(=O)NC3(C(=O)O)Cc4ccccc4C3)ccc2OC)cc1Cl` [Example 321]: 1000 to 30000 nM; for `CC[C@H](COc1cc(C(=O)NC2(C(=O)O)Cc3ccccc3C2)ccc1OC)N1Cc2ccccc2C1` [Example 83]: 1000 to 30000 nM.
Consider `COc1ccc2c(c1)CC(NC(=O)c1ccc(OC)c(OCCc3cccc(C)c3)c1)(C(=O)O)C2` (stereo not drawn) [Example 159, 5-Methoxy-2-[4-methoxy-3-(2-m-tolyl-ethoxy)-benzoylamino]-indane-2-carboxylic acid], for which the IC50 is less than 100 nM.
The result for `COc1ccc(C(=O)N(C)C2(C(=O)O)Cc3ccccc3C2)cc1OCCc1cccc(C)c1` [Example 108, 2-{[4-Methoxy-3-(2-m-tolyl-ethoxy)-benzoyl]-methyl-amino}-indane-2-carboxylic acid] reads 100 to 1000 nM.
The result for `COc1ccc(C(=O)NC2(C(=O)O)Cc3ccccc3C2)cc1OCC(C)c1ccccc1` (stereo not drawn) [Example 144] reads less than 100 nM.

The values above are taken from US8802720B2, “Acylamino-substituted fused cyclopentanecarboxylic acid derivatives and their use as pharmaceuticals” (SANOFI, priority 2008, dated 2014).
